In the supplement of paper PMC10784567:
± gives the standard deviation of the averaged measurements.

Compound: C=C1C[C@H]2C=Nc3cc(OCCCCCOc4cc5c(cc4OC)C(=O)N4CC(=C)C[C@H]4C=N5)c(OC)cc3C(=O)N2C1 [SG2057]
Test: absolute IC50 (cell viability, CellTiter-Glo); higher = less potent
Conditions: treatment time: 3 days
Description: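 Large cancer cell line panel screens in 384-well plates. Cells were treated for 3 days with a 9-point dose titration of the free PBD dimer SG2057; viability was read with CellTiter-Glo. Absolute IC50 came from a four-parameter Hill fit normalised to the median of vehicle (DMSO) wells. Several independent screens (projects) per cell line are averaged; values in µM, lowest-dose floor about 1.524e-5 µM.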

NCI-H2461 was tested, and the “absolute IC50” value was 0.545 ± 0.89 nM.
In the case of G-402, the “absolute IC50” value is reported as 0.349 ± 0.14 nM.
PLC/PRF/5 was tested, and the “absolute IC50” value was 8.3 nM.
In the case of RC-K8, the “absolute IC50” value is reported as 0.667 ± 1 nM.
With KMS-28PE the “absolute IC50” value was 0.0647 ± 0.036 nM.
SK-HEP-1 was tested, and the “absolute IC50” value was 0.205 nM.
In the case of HeLa, the “absolute IC50” value is reported as 1.8 nM.
KPR3070 was tested, and the “absolute IC50” value was 1.35 nM.
In the case of NCI-H146, the “absolute IC50” value is reported as 0.508 nM.
KP-3L was tested, and the “absolute IC50” value was 2.69 ± 0.26 nM.
For VMRC-LCD, the “absolute IC50” value was 4.27 nM.
In the case of CCF-STTG1, the “absolute IC50” value is reported as 2.87 nM.
For HEC-108, the “absolute IC50” value was 1.42 nM.
For U-2 OS, the “absolute IC50” value was 0.53 nM.
RERF-LC-MS was tested, and the “absolute IC50” value was 0.212 ± 0.15 nM.
For C32TG, the “absolute IC50” value was 0.2 nM.
With MC-38 Ovalbumin the “absolute IC50” value was 0.208 nM.
In the case of NCI-H1930, the “absolute IC50” value is reported as 0.0346 nM.
For WSU-DLCL2, the “absolute IC50” value was 0.358 ± 0.36 nM.
For RMUG-S, the “absolute IC50” value was 1.92 ± 0.051 nM.
With SK-N-DZ the “absolute IC50” value was 5.04 nM.
NCI-H1944 was tested, and the “absolute IC50” value was 1.06 ± 0.29 nM.
In the case of KYSE-180, the “absolute IC50” value is reported as 0.667 nM.
With 8305C the “absolute IC50” value was 0.706 nM.
In the case of BOKU, the “absolute IC50” value is reported as 0.258 nM.
EBC-1 was tested, and the “absolute IC50” value was 0.876 nM.
FTC-238 was tested, and the “absolute IC50” value was 0.101 nM.
NB-4 was tested, and the “absolute IC50” value was 0.29 nM.
SF268 was tested, and the “absolute IC50” value was 0.424 ± 0.77 nM.
With NCI-H2373 the “absolute IC50” value was 0.217 ± 0.18 nM.
For RKO-E6, the “absolute IC50” value was 1.32 ± 2.1 nM.
Renca was tested, and the “absolute IC50” value was 10.3 ± 12 nM.
With A-673 the “absolute IC50” value was 0.0661 nM.
RT-112 was tested, and the “absolute IC50” value was 1.53 ± 2.8 nM.
For COV318, the “absolute IC50” value was 5.85 ± 6.6 nM.
Detroit 562 was tested, and the “absolute IC50” value was 1.79 ± 2.6 nM.
With COLO 206F the “absolute IC50” value was 2.54 ± 2.5 nM.
SF539 was tested, and the “absolute IC50” value was 0.27 ± 0.54 nM.
With VMRC-RCW the “absolute IC50” value was 3.72 nM.
In the case of COLO 678, the “absolute IC50” value is reported as 5.65 ± 4.5 nM.
With PK-45P the “absolute IC50” value was 6.29 ± 1.9 nM.
In the case of Hs 578T, the “absolute IC50” value is reported as 1.51 ± 1.3 nM.
NCI-H2122 was tested, and the “absolute IC50” value was 2.98 ± 1.3 nM.
ChaGo-K-1 was tested, and the “absolute IC50” value was 3.31 ± 1.5 nM.
For UACC-257, the “absolute IC50” value was 2.41 nM.
JJN-3 was tested, and the “absolute IC50” value was 0.816 ± 1.7 nM.
NCI-H358 was tested, and the “absolute IC50” value was 0.959 ± 0.56 nM.
In the case of MHH-ES-1, the “absolute IC50” value is reported as 0.159 nM.
HCC70 (DODx) was tested, and the “absolute IC50” value was 4.647 ± 0.017 nM.
For KP-3, the “absolute IC50” value was 2.41 ± 1.7 nM.
ML-2 was tested, and the “absolute IC50” value was 0.0572 ± 0.013 nM.
For CT26.WT, the “absolute IC50” value was 5.3 nM.
With KARPAS-1106P the “absolute IC50” value was 0.158 ± 0.045 nM.
1624-16997 (Tumor A) was tested, and the “absolute IC50” value was 0.926 nM.
With KYSE-450 the “absolute IC50” value was 0.564 nM.
In the case of ID8, the “absolute IC50” value is reported as 0.292 nM.
In the case of NCI-H2171, the “absolute IC50” value is reported as 0.742 ± 1.3 nM.
With HCC1187 the “absolute IC50” value was 0.601 ± 0.69 nM.
Ca Ski was tested, and the “absolute IC50” value was 0.254 nM.
For 23132/87, the “absolute IC50” value was 1 ± 1.2 nM.
For SW 480, the “absolute IC50” value was 0.462 ± 0.51 nM.
In the case of SW 1463, the “absolute IC50” value is reported as 7.83 ± 8.2 nM.
HEC-88nu was tested, and the “absolute IC50” value was 3.07 nM.
With HL-60 the “absolute IC50” value was 5.24 nM.
For TC-1, the “absolute IC50” value was 0.384 nM.
In the case of 105KC (DODx), the “absolute IC50” value is reported as 3.56 nM.
In the case of HCC1482, the “absolute IC50” value is reported as 0.173 nM.
In the case of CHL-1, the “absolute IC50” value is reported as 1.39 ± 1.1 nM.
KYSE-30 was tested, and the “absolute IC50” value was 0.368 nM.
In the case of C170, the “absolute IC50” value is reported as 2.97 ± 1.1 nM.
With HCC89 the “absolute IC50” value was 4.66 ± 3.1 nM.
With HEC-1-A the “absolute IC50” value was 3.86 nM.
In the case of AN3 CA, the “absolute IC50” value is reported as 1.45 nM.
For HLE, the “absolute IC50” value was 2.7 nM.
For OVCAR-5, the “absolute IC50” value was 1.08 ± 0.3 nM.
IGR-39 was tested, and the “absolute IC50” value was 0.0981 ± 0.02 nM.
EB-3 was tested, and the “absolute IC50” value was 0.637 ± 0.85 nM.
With MR1-3 the “absolute IC50” value was 0.256 nM.
In the case of HCC4017, the “absolute IC50” value is reported as 0.193 nM.
SK-MEL-31 was tested, and the “absolute IC50” value was 3.78 nM.
KLM-1 was tested, and the “absolute IC50” value was 1 ± 0.96 nM.
In the case of S-117, the “absolute IC50” value is reported as 2.29 nM.
In the case of PC-9, the “absolute IC50” value is reported as 5.48 nM.
In the case of CL-34, the “absolute IC50” value is reported as 1.69 ± 3.5 nM.
KINGS-1 was tested, and the “absolute IC50” value was 2.75 nM.
With Hep G2 the “absolute IC50” value was 2.2 nM.
For KG-1, the “absolute IC50” value was 1.22 ± 0.91 nM.
NCI-H2804 was tested, and the “absolute IC50” value was 0.718 ± 0.98 nM.
In the case of NCI-H2106, the “absolute IC50” value is reported as 1.36 ± 0.71 nM.
SW 900 was tested, and the “absolute IC50” value was 3.18 nM.
MOLM-16 was tested, and the “absolute IC50” value was 0.27 ± 0.29 nM.
MC-IXC was tested, and the “absolute IC50” value was 0.0163 nM.
With KMS-27 the “absolute IC50” value was 0.164 ± 0.0027 nM.
With B-CPAP the “absolute IC50” value was 0.345 nM.
With COLO 205 the “absolute IC50” value was 1.52 ± 0.48 nM.
With Hep 3B2.1-7 the “absolute IC50” value was 3.83 ± 2.6 nM.
For NCI-H889, the “absolute IC50” value was 1.32 nM.
KMRC-1 was tested, and the “absolute IC50” value was 1.26 nM.
With MOR the “absolute IC50” value was 8.9 nM.
With Hs 852.T the “absolute IC50” value was 0.582 ± 0.063 nM.
DAN-G was tested, and the “absolute IC50” value was 0.694 ± 0.32 nM.
NCI-H1339 was tested, and the “absolute IC50” value was 0.155 nM.
For GOS-3, the “absolute IC50” value was 0.597 nM.
In the case of 1624-17095 (Tumor A), the “absolute IC50” value is reported as 1.31 nM.
In the case of HCC1319, the “absolute IC50” value is reported as 12.8 nM.
PMF-ko14 was tested, and the “absolute IC50” value was 2.86 ± 5.1 nM.
For SNU-216, the “absolute IC50” value was 1.57 ± 2.9 nM.
For G121, the “absolute IC50” value was 0.799 ± 0.38 nM.
For FU97, the “absolute IC50” value was 1.57 nM.
For NCI-H727, the “absolute IC50” value was 6.75 nM.
For KPP14388, the “absolute IC50” value was 0.96 nM.
For JJ012 (DODx), the “absolute IC50” value was 1.42 nM.
In the case of HuCCT1, the “absolute IC50” value is reported as 2.63 ± 2.5 nM.
In the case of AB22, the “absolute IC50” value is reported as 4.95 nM.
With 1624-17147 (Tumor A) the “absolute IC50” value was 1.27 nM.
In the case of HN, the “absolute IC50” value is reported as 0.225 nM.
For HCC2688, the “absolute IC50” value was 0.282 nM.
With KARPAS-620 the “absolute IC50” value was 2.96 nM.
KYSE-510 was tested, and the “absolute IC50” value was 0.0686 nM.
COV362.4 was tested, and the “absolute IC50” value was 4.61 ± 1.7 nM.
In the case of A549, the “absolute IC50” value is reported as 0.926 ± 1.4 nM.
In the case of LN-229, the “absolute IC50” value is reported as 2.6 ± 1.4 nM.
With ASH-3 the “absolute IC50” value was 0.925 nM.
COR-L26 was tested, and the “absolute IC50” value was 0.211 ± 0.31 nM.
HCC1263 was tested, and the “absolute IC50” value was 5.65 ± 3.7 nM.
LUDLU-1 was tested, and the “absolute IC50” value was 9.43 nM.
Hs 683 was tested, and the “absolute IC50” value was 0.626 ± 1 nM.
For HT-3, the “absolute IC50” value was 0.212 nM.
For NCI-H1355, the “absolute IC50” value was 2.88 ± 3 nM.
With COLO 794 the “absolute IC50” value was 0.0985 ± 0.063 nM.
With NCI-H1395 the “absolute IC50” value was 1.66 nM.
In the case of IM-95m, the “absolute IC50” value is reported as 3.43 nM.
With KMS-21BM the “absolute IC50” value was 0.26 ± 0.051 nM.
In the case of KURAMOCHI, the “absolute IC50” value is reported as 4.22 nM.
For SKG-II, the “absolute IC50” value was 0.0743 nM.
In the case of Caco-2, the “absolute IC50” value is reported as 5.17 ± 0.99 nM.
Hs 839.T was tested, and the “absolute IC50” value was 6.79 nM.
With LNCAP clone FGC the “absolute IC50” value was 0.365 ± 0.13 nM.
CAL 27 was tested, and the “absolute IC50” value was 0.164 nM.
KMS-26 was tested, and the “absolute IC50” value was 0.0823 ± 0.024 nM.
In the case of BICR 10, the “absolute IC50” value is reported as 0.421 nM.
